# Test: recombinant barcode read abundance after kanamycin selection (control-corrected) (log10(CPM+1)); higher = more efficient recombination; sequences stand for … in AGTGCAGAGAAAATCGGCCAGTTTTCTCTGCCTGCAGTCCGCATGCCGT…AGATTTATGCAGCGGACTGCCTTTCTCCCAAAGTGATAAACCGGACAGTATCATGGACCGGTTTTCCCGGTAATCCGTATTTGCAAGGTTGGTTTCACT; site = the 11-nt target
# Method in brief: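 IS621 bridge RNA target-binding loops were paired with targets in a pooled library tested in E. coli. After co-electroporation with a donor plasmid, cells were plated in two replicates on chloramphenicol/ampicillin LB agar (control) and on chloramphenicol/ampicillin/kanamycin carrying 0.1 mM IPTG. Barcodes at recombinant junctions were counted as counts per million, averaged and control-corrected to give recombination efficiency. Values are log10(CPM+1).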
# 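Further: IS621 recombinase and bridge RNA in Escherichia coli cells.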
row,Sequence,recombinant barcode read abundance (log10)
1,CTCTACTCTTGGGTTCTAACCTGTTGCGT (site CTCTACTCTAC),0.529
2,CTCTACTCTTGGGTTCTAACCTGTTGCGT (site TGACCTACTTG),0.0348
3,CTCTAGACTTGGGTTCTAACCTGTTGCCA (site CTCTAAACTTG),0.193
4,CTCTAGACTTGGGTTCTAACCTGTTGCCA (site CTCTACACTTG),0.0305
5,CTCTAGACTTGGGTTCTAACCTGTTGCCA (site CTCTAGACTTG),0.69
6,CTCTAGACTTGGGTTCTAACCTGTTGCCA (site CTCTATACTTG),0.0325
7,CTCTAGCCTTGGGTTCTAACCTGTTGCGT (site CTCTAACCTAC),1.38
8,CTCTAGCCTTGGGTTCTAACCTGTTGCGT (site CTCTACCCTAC),0.178
9,CTCTAGCCTTGGGTTCTAACCTGTTGCGT (site CTCTAGCCTAC),1.25
10,CTCTAGCCTTGGGTTCTAACCTGTTGCGT (site CTCTATCCTAC),0.0754
11,CTCTAGTCTTGGGTTCTAACCTGTTGCCT (site CTCTAGTCTAA),0.0156
12,CTCTAGTCTTGGGTTCTAACCTGTTGCCT (site CTCTAGTCTAC),0.792
13,CTCTAGTCTTGGGTTCTAACCTGTTGCCT (site CTCTAGTCTAG),0.154
14,CTCTAGTCTTGGGTTCTAACCTGTTGCCT (site CTCTAGTCTAT),0.526
15,CTCTATACTTGGGTTCTAACCTGTTGCCA (site CTCTAAACTTG),0.0863
16,CTCTATACTTGGGTTCTAACCTGTTGCCA (site CTCTACACTTG),0.102
17,CTCTATACTTGGGTTCTAACCTGTTGCCA (site CTCTAGACTTG),0.511
18,CTCTATACTTGGGTTCTAACCTGTTGCCA (site CTCTATACTTG),0.0112
19,CTCTATCCTTGGGTTCTAACCTGTTGCGT (site CTCTAACCTAC),0.526
20,CTCTATCCTTGGGTTCTAACCTGTTGCGT (site CTCTACCCTAC),0.218
21,CTCTATCCTTGGGTTCTAACCTGTTGCGT (site CTCTAGCCTAC),0.376
22,CTCTATCCTTGGGTTCTAACCTGTTGCGT (site CTCTATCCTAC),0.551

row,Sequence,recombinant barcode read abundance (log10)
1,CTCTCGTCTTGGGTTCTAACCTGTTGCGT (site CTCTCGTCTAA),0.0993
2,CTCTCGTCTTGGGTTCTAACCTGTTGCGT (site CTCTCGTCTAC),1.19
3,CTCTCGTCTTGGGTTCTAACCTGTTGCGT (site CTCTCGTCTAG),0.291
4,CTCTCGTCTTGGGTTCTAACCTGTTGCGT (site CTCTCGTCTAT),0.0817
5,CTCTCTCCTTGGGTTCTAACCTGTTGCCT (site CTCTCTCCTAG),0.261
6,CTCTCTCCTTGGGTTCTAACCTGTTGCCT (site CTCTCTTCTAG),0.148
7,CTCTGGACTTGGGTTCTAACCTGTTGCAC (site CTCTGGACTGT),0.64
8,CTCTGGACTTGGGTTCTAACCTGTTGCAC (site CTGTGGACTCT),0.058
9,CTCTGGGCTTGGGTTCTAACCTGTTGCCT (site CTCTAGGCTAG),0.179
10,CTCTGGGCTTGGGTTCTAACCTGTTGCCT (site CTCTCGGCTAG),0.29
11,CTCTGGGCTTGGGTTCTAACCTGTTGCCT (site CTCTGGGCTAG),0.15
12,CTCTGGGCTTGGGTTCTAACCTGTTGCCT (site CTCTTGGCTAG),0.198
13,CTCTTGGCTTGGGTTCTAACCTGTTGCCT (site CTCTAGGCTAG),0.261
14,CTCTTGGCTTGGGTTCTAACCTGTTGCCT (site CTCTCGGCTAG),0.139
15,CTCTTGGCTTGGGTTCTAACCTGTTGCCT (site CTCTGGGCTAG),0.0739
16,CTCTTGGCTTGGGTTCTAACCTGTTGCCT (site CTCTTGGCTAG),0.0663
17,CTCTTGTCTTGGGTTCTAACCTGTTGCCA (site CGCTTGTCTCG),0.391
18,CTCTTGTCTTGGGTTCTAACCTGTTGCCA (site CTCTTGTCTTG),0
19,CTGAGCCCTTGGGTTCTAACCTGTTGCCT (site CTGAGCCCTAG),0.6
20,CTGAGCCCTTGGGTTCTAACCTGTTGCCT (site CTGCGCCCTAG),0.448
21,CTGAGCCCTTGGGTTCTAACCTGTTGCCT (site CTGGGCCCTAG),0.354

# — the supplement of paper PMC11208160
